These results are taken from paper PMC6718442, “11β-Hydroxysteroid dehydrogenases control access of 7β,27-dihydroxycholesterol to retinoid-related orphan receptor γ” (Journal of Lipid Research, 2019).

The structures appear in SMILES notation.

Experiment [1] concerns the target T1, mineralocorticoid receptor (MR) (Homo sapiens, UniProt P80365).
T1 sequence (P80365 1-405): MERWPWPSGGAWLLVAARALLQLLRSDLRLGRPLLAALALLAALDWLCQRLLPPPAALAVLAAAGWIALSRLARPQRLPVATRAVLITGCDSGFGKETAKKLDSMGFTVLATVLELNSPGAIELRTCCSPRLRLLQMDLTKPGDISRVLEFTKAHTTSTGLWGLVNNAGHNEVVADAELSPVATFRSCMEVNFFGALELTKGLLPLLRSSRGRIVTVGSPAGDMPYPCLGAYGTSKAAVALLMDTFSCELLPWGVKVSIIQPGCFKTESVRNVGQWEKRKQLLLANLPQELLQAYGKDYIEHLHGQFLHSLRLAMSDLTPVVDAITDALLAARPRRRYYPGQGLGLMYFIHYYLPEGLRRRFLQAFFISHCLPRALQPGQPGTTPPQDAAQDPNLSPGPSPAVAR
T1 sequence (P08235 1-984 partner): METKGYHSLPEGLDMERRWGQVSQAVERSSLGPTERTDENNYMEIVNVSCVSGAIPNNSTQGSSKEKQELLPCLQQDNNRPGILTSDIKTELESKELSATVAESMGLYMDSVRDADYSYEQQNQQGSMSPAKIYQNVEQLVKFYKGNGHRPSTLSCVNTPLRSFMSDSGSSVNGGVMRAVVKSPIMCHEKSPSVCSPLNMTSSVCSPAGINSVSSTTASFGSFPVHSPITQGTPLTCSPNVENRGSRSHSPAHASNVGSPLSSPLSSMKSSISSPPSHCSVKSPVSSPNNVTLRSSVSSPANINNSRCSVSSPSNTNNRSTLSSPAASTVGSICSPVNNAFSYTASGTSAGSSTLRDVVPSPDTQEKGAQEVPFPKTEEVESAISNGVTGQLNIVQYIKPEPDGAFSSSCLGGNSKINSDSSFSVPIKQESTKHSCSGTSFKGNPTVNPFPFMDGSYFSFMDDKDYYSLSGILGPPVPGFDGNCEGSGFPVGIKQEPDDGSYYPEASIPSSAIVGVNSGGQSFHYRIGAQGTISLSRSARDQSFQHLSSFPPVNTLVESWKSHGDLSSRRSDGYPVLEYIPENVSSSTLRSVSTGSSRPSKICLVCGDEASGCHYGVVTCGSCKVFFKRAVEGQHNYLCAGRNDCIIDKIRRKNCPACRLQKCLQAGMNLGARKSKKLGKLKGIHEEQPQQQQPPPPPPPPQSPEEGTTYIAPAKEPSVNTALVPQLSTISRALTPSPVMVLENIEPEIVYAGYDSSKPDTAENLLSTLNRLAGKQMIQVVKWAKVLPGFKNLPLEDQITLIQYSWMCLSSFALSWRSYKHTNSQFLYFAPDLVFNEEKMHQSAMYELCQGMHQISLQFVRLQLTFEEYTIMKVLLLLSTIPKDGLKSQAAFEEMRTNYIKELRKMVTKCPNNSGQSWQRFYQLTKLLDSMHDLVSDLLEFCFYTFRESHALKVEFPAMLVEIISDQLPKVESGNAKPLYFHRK
Nature of the experiment: Mineralocorticoid receptor reporter gene assay in HEK-293 cells stably expressing 11β-HSD2. Particulars: without cortisol, data not shown. It is filed as cell-based. As to the method:
Then, the cells were transiently transfected with the mineralocorticoid receptor (MR) (300 ng/well), a [NT] luciferase reporter (450 ng/well), and a pCMV-lacZ β-galactosidase transfection control (25 ng/well) using the calcium phosphate precipitation method. At 6 h post-transfection, the cells were washed with DMEM and incubated for another 18 h before replacing the medium with cDMEM. The cells were cultured for another 2 h at 37°C. […] The cells were lysed with Tropix lysis solution (Applied Biosystems, Foster City, CA) containing 0.5 mM of dithiothreitol and frozen at -80°C for at least 20 min.

In the next experiment the target is T2, mouse 11β-hsd1 (Mus musculus, UniProt P50172).
T2 construct: expressed in transfected cells; host or cells: HEK-293
Nature of the experiment: Conversion of 7k27OHC by mouse 11β-hsd1 (data not shown).

The target in a further experiment is T3, human 11β-HSD1 (Homo sapiens, UniProt P28845).
T3 construct: expressed in transfected cells
Put plainly: 11β-HSD1 enzyme kinetics (apparent KM and Vmax) in microsomes. It is filed as biochemical. As to the method:
Microsomes were prepared as described earlier with minor modifications ([38]). Briefly, HEK-293 cells stably expressing human 11β-HSD1 and H6PDH were cultured until they reached confluence. Then, they were washed with ice-cold PBS and resuspended to a final concentration of ∼2 × 10^7 cells/ml in ice-cold buffer A [50 mM Tris (pH 7.5), 1 mM EDTA, 100 mM NaCl]. Typically, 6 ml of this suspension were prepared, corresponding to 1.2 × 10^8 cells. Following homogenization with 20 strokes in a glass potter on ice, the preparation was sonicated and centrifuged (9.000 g, 4°C for 30 min). The supernatant was removed and subjected to ultracentrifugation at 105,000 g, 4°C for 70 min. The obtained pellet was resuspended in buffer B [20 mM Tris (pH 7.5), 1 mM EDTA, 10% glycerol] and the ultracentrifugation step repeated. The microsomal fraction was again resuspended in buffer B and the total protein concentration determined using BCA assay ([39]). The microsomes were immediately frozen on dry ice and stored at −80°C.
Microsomes (1–20 μg) expressing 11β-HSD1 and H6PDH were incubated for 20 min with 1 mM of NADPH, 2 mM of glucose-6-phosphate, 0.1 units of glucose-6-phosphate dehydrogenase (from Saccharomyces cerevisiae), and different concentrations (62.5–2,000 nM) of 7k27OHC, adapted to a total assay volume of 50 μl with TS2 buffer [100 mM NaCl, 1 mM EGTA, 1 mM EDTA, 1 mM MgCl2, 250 mM sucrose, 20 mM Tris/HCl (pH 7.4)]. Oxysterols were extracted by mixing the samples with ice-cold ethyl acetate containing 100 nM deuterium-labeled 7β27OHC as internal standard and 1.5% (v/v) BHT/TPP solution as antioxidant. […] After reconstitution in 50 μl of methanol:ultra-pure water (1:1, v/v), the samples were centrifuged (4°C, 16,000 g for 10 min) and analyzed by UHPLC-MS/MS.
The substrate conversion was kept below 30% in all reactions. Apparent kinetic parameters (KM and Vmax) were determined by nonlinear regression and under the assumption of Michaelis-Menten kinetics. […]

The target in another experiment is T4, 11β-HSD2 (Homo sapiens, UniProt P80365).
T4 construct: expressed in transfected cells
T4 sequence (P80365 1-405): T1 sequence (P80365 1-405)
Put plainly: 11β-HSD2 enzyme kinetics (apparent KM and Vmax) in HEK-293 cell lysate. It is filed as biochemical. As to the method:
For 11β-HSD2 activity measurements, 0.8 μg of HEK-293 cell lysate stably expressing 11β-HSD2 was incubated with different concentrations (50–800 nM) of 7β27OHC and 500 μM of NAD^+ for 10–30 min. Oxysterols were extracted as described in the 11β-HSD-dependent metabolism of 7-oxygenated 27OHCs in intact cells section.
The substrate conversion was kept below 30% in all reactions. Apparent kinetic parameters (KM and Vmax) were determined by nonlinear regression and under the assumption of Michaelis-Menten kinetics. Data (mean ± SD) were obtained from three independent experiments.

Where [2] appears, read: oxoreduction of substrate by 11β-HSD1, microsomes.
Where [3] appears, read: oxidation of substrate by 11β-HSD2, cell lysate.

T3 sequence (P28845 whole entry): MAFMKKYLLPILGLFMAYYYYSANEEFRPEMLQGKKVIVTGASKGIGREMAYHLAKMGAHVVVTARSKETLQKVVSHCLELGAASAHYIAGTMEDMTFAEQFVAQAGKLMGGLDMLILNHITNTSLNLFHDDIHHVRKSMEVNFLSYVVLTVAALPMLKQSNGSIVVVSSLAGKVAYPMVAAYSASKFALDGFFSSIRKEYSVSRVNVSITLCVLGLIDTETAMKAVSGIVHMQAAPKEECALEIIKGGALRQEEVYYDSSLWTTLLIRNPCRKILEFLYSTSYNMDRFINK
T2 sequence (P50172 whole entry): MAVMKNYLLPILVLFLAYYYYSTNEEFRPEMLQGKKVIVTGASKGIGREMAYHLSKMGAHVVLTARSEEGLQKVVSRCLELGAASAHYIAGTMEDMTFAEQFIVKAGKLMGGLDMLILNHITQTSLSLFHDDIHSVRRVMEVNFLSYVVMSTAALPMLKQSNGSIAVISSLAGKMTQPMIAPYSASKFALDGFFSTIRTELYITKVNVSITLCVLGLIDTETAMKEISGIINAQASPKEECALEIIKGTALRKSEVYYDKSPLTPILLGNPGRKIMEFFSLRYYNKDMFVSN

Regarding `CC(CO)CCC[C@@H](C)[C@H]1CC[C@H]2[C@@H]3C(=O)C=C4C[C@@H](O)CC[C@]4(C)[C@H]3CC[C@]12C` (stereo partly drawn) [7k27OHC, 7-keto,27-hydroxycholesterol], in experiment [1], the “Stimulation of MR activity by the substance itself (in words)” value is “neither 7β27OHC nor 7k27OHC was able to stimulate MR activity by itself”. Moreover, the “Conversion by mouse 11β-hsd1 (in words)” value on mouse 11β-hsd1 is “exclusive conversion of 7k27OHC to 7β27OHC without the formation 7α27OHC”. Also, on human 11β-HSD1 (setting [2]), the KMapp was 39 ± 12 nM and the Vmax app is reported as 4.3 ± 0.2 nmol·h^−1·mg total protein^−1. Also, at human 11β-HSD1 (versus cortisone, 11-DHC, 7kC, 7oxoLCA), the “Affinity of 11β-HSD1, times higher than for other endogenous substrates” value was 6-25 times.
With `CC(CO)CCC[C@@H](C)[C@H]1CC[C@H]2[C@@H]3[C@@H](O)C=C4C[C@@H](O)CC[C@]4(C)[C@H]3CC[C@]12C` (stereo partly drawn) [7β27OHC, 7β,27-dihydroxycholesterol], the “Stimulation of MR activity by the substance itself (in words)” value in experiment [1] is given as “neither 7β27OHC nor 7k27OHC was able to stimulate MR activity by itself”. Besides, at 11β-HSD2 (setting [3]), the KMapp stood at 56 ± 11 nM and the Vmax app is recorded as 10 ± 0.4 nmol·h^−1·mg total protein^−1. Moreover, the “Substrate affinity of 11β-HSD2, times higher than for cortisol” value at 11β-HSD2 (versus cortisol KMapp ∼200 nM) is ~4 times.
